# Reference: PubChem BioAssay (NCI)
# “And” between values parts separate entries of the source, which are not always exact repeats. Identical values can stand only once.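 These data come from cells grown in 96-well plates and exposed to compound for 48 hours at five concentrations. At the GI50, growth is halved. At the TGI there is no net growth.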
# Assays:
# Test in all cases: growth of human tumour cells (NCI), 48 h
# [1] = system: HT29 colon
# [2] = system: HOP-92 NSCLC
# [3] = system: KM12 colon
# [4] = system: NCI-H460 lung
# [5] = system: SR leukemia
# [6] = system: MDA-MB-231 breast
# [7] = system: PC-3 prostate
# [8] = system: NCI/ADR-RES ovarian
# [9] = system: EKVX NSCLC
# [10] = system: 786-0 renal
SMILES,TGI [1],TGI [2],TGI [3],TGI [4],TGI [5] [µM],TGI [6],TGI [7],TGI [8],TGI [9],TGI [10],GI50 [1],GI50 [2],GI50 [3],GI50 [4],GI50 [5] [µM],GI50 [6],GI50 [7],GI50 [8],GI50 [9],GI50 [10]
COc1cc(OC)c(/C=C\c2ccnc3ccccc23)c(OC)c1,11.8 µM,9.91 µM,16.5 µM,14.2 µM,12.6,15.4 µM,23 µM,10.2 µM,17.7 µM,17.8 µM,,,,,,,,,,
Clc1ccc2c(c1)N(CCCN1CCCC1)c1ccccc1S2,12.9 µM,16.2 µM,18.7 µM,35.4 µM,4.91,12.8 µM,16.1 µM,18.8 µM,21.6 µM,19.3 µM,3.71 µM,3.94 µM,5.14 µM,15.2 µM,2.01,3.42 µM,4.38 µM,5.34 µM,8 µM,5.38 µM
C=CC(C1=CC(=O)C(OC)=CC1=O)c1ccccc1 (stereo not given),42 µM,11.8 µM,34.6 µM,36.3 µM,26.5,19.2 µM,25.7 µM,44.8 µM,30.5 µM,28.4 µM,,,,,,,,,,
CC(=O)c1cc(C(=O)c2ccc3c(c2)Sc2ccccc2N3)c2c(C)cc(C)cn12,0.962 µM,> 31 µM,> 46.7 µM,,> 100,8.95 µM,> 100 µM,8.16 µM,> 100 µM,> 21.5 µM,0.315 µM,1.24 µM,0.353 µM,0.311 µM,0.302,0.458 µM,0.362 µM,0.264 µM,0.636 µM,0.465 µM
CC1=CC(=C(c2ccc(N)cc2)c2ccc(N)cc2)C=CC1=N,10.7 µM and 29.9 µM and 11.3 µM,,6.54 µM and 7.11 µM and 10.1 µM,7.3 µM and 28.9 µM and 15.8 µM,> 58.8,,10.6 µM and 18.2 µM and 10.1 µM,46.6 µM and 61.9 µM and > 100 µM,20 µM and 70.8 µM and 41.5 µM,6.53 µM and 26.1 µM and 31.7 µM,0.558 µM and 3.08 µM,0.949 µM and 3.25 µM,0.557 µM and 2.72 µM,0.838 µM,,2.33 µM and 2.87 µM,0.553 µM and 2.58 µM,9.31 µM and 25.7 µM,1.37 µM and 2.23 µM,1.64 µM and 8.26 µM
Cc1ccc(C(SCC(N)C(=O)O)(c2ccc(C)cc2)c2ccc(C)cc2)cc1 (stereo not given),> 34.8 µM,17.5 µM,12.4 µM,12 µM,6.91,7.77 µM,20.1 µM,53.7 µM,39.4 µM,30.1 µM,3.55 µM,2.87 µM,2.26 µM,2.3 µM,1.92,1.93 µM,2.94 µM,15 µM,4.32 µM,4.93 µM
Cc1cc(O)ccc1C1=NN(c2ccc(S(C)(=O)=O)cc2)C(=O)CC1,32.3 µM,> 100 µM,> 100 µM,> 100 µM,> 100,> 100 µM,> 100 µM,> 100 µM,> 100 µM,> 100 µM,3.7 µM,6.49 µM,4.22 µM,3.87 µM,3.39,17.1 µM,14.8 µM,3.26 µM,57.9 µM,92.5 µM
CC(C)(C)C(=O)OCOP(=O)(OCOC(=O)C(C)(C)C)C1CC(O)N(O)C1=O (stereo not given),16.4 µM,8.99 µM,> 100 µM,> 100 µM,75.2,40.9 µM,> 100 µM,> 100 µM,> 100 µM,> 100 µM,3.07 µM,1.84 µM,4.79 µM,4.35 µM,4.2,3.65 µM,8.81 µM,4.39 µM,10.8 µM,3.68 µM
CC1(C)CCC2=C(O1)c1ccccc1C(=O)C2=O,> 100 µM,3.33 µM and 10.4 µM,3.38 µM and 2.13 µM,3.69 µM and 1.15 µM,> 100,5.55 µM and 1.67 µM,3.01 µM and 6.31 µM,2.69 µM and 1.8 µM,3.78 µM and 3.59 µM,3.94 µM and 2.68 µM,3.43 µM,1.72 µM,1.7 µM,1.88 µM and 0.323 µM,3.99,2.01 µM,1.24 µM,0.445 µM and 0.481 µM,,1.99 µM
O=C1C(=O)c2c(nc3ccc(Br)cn23)-c2ccccc21,6.12 µM,2.7 µM,3.19 µM,2.69 µM,1.52,2.86 µM,2.47 µM,3.87 µM,3.31 µM,3.36 µM,2.44 µM,1.22 µM,1.55 µM,1.09 µM,0.33,0.465 µM,0.688 µM,0.699 µM,1.54 µM,1.85 µM
COc1ccc2c(CN3CCC(C(=O)O)CC3)cc3cc4c(cc3c2c1)OCO4,13.8 µM,5.34 µM,10.4 µM,16.1 µM,5.78,30.7 µM,6.05 µM,6.99 µM,20.6 µM,14.2 µM,2.33 µM,1.62 µM,2.52 µM,2.97 µM,0.886,3.87 µM,2.26 µM,2.35 µM,3.69 µM,2.41 µM
